From patent publication US9695155B2, “Herbicidal substituted pyrimidinyloxy benzene compounds” (E. I. DU PONT DE NEMOURS AND COMPANY, priority 2013, dated 2017)

Experiments:
[1] = tested on: large (Lg) crabgrass; assay: Test A postemergence; type: in vivo, Digitaria sanguinalis
Method in brief: (§1)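 Greenhouse pot test, loam/sand soil. Formulation: non-phytotoxic solvent mix plus surfactant. Pre: directed spray onto soil after sowing. Post: plants at 1–2 leaf, 2–10 cm. Rated visually vs untreated controls at ~10 d, 0 (no effect) to 100 (complete control).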

[2] = tested on: velvetleaf; assay: Test A postemergence; type: in vivo, Abutilon theophrasti; settings: 0 to 100 scale where 0 is no effect and 100 is complete control
Method in brief: as §1

[3] = tested on: barnyardgrass; assay: Test B flooded paddy test; type: in vivo, Echinochloa crus-galli; settings: Flood, 250 g ai/ha; 0 to 100 scale where 0 is no effect and 100 is complete control
Method in brief: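 Seedlings are raised to two leaves, flooded to a depth of 3 cm and dosed by adding the compound to the floodwater. Water level is kept constant, and plants are scored visually versus controls 13–15 days later (0 = no effect, 100 = complete control).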

[4] = tested on: galium; assay: Test C preemergence; type: in vivo, Galium aparine; settings: for Galium plant response rating: preemergence, scale 0 (no effect) to 100 (complete control)
Method in brief: (§2)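 Seeds are planted in blended loam soil and sand and treated preemergence, while seedlings in a peat moss/vermiculite medium receive postemergence sprays at 2 to 18 cm height. All plants stay in the greenhouse for 13 to 15 days before visual comparison with controls on a 0–100 scale.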

[5] = tested on: corn; assay: Test C preemergence; type: in vivo, Zea mays; settings: preemergence, scale 0 (no effect) to 100 (complete control)
Method in brief: as §2

[6] = tested on: morningglory; assay: Test C preemergence; type: in vivo, Ipomoea coccinea; settings: for Morningglory plant response rating: preemergence, scale 0 (no effect) to 100 (complete control)
Method in brief: as §2

[7] = tested on: yellow nutsedge; assay: Test C preemergence; type: in vivo, Cyperus esculentus; settings: for Nutsedge, Yellow plant response rating: preemergence, scale 0 (no effect) to 100 (complete control)
Method in brief: as §2

[8] = tested on: wheat, winter; assay: Test C postemergence; type: in vivo, Triticum aestivum; settings: for Plant response rating (0 to 100), Wheat: postemergence; for Plant response rating, Wheat: Postemergence, scale 0 to 100 (0 no effect, 100 complete control)
Method in brief: as §2

[9] = tested on: lambsquarters; assay: Test C postemergence; type: in vivo, Chenopodium album; settings: for Plant response rating (0 to 100), Lambsquarters: postemergence; for Plant response rating, Lambsquarters: Postemergence, scale 0 to 100 (0 no effect, 100 complete control)
Method in brief: as §2

[10] = tested on: morningglory; assay: Test C postemergence; type: in vivo, Ipomoea coccinea; settings: for Plant response rating (0 to 100), Morningglory: postemergence; for Plant response rating, Morningglory: Postemergence, scale 0 to 100 (0 no effect, 100 complete control)
Method in brief: as §2

[11] = tested on: ragweed; assay: Test C postemergence; type: in vivo, Ambrosia elatior; settings: for Plant response rating (0 to 100), Ragweed: postemergence; for Plant response rating, Ragweed: Postemergence, scale 0 to 100 (0 no effect, 100 complete control)
Method in brief: as §2

[12] = tested on: soybean; assay: Test C postemergence; type: in vivo, Glycine max; settings: for Plant response rating (0 to 100), Soybean: postemergence
Method in brief: as §2

[13] = tested on: oilseed rape; assay: Test C postemergence; type: in vivo, Brassica napus; settings: for Plant response rating (0 to 100), Oilseed Rape: postemergence; for Plant response rating, Oilseed Rape: Postemergence, scale 0 to 100 (0 no effect, 100 complete control)
Method in brief: as §2

[14] = Preemergence, 31 g ai/ha, scale 0 to 100, 0 no effect, 100 complete control

`N#Cc1cccc(Oc2ncc(Cl)cn2)c1-n1cc(Cl)cn1` [Compound 72] was tested, and the “Plant response rating, Crabgrass, Large” value ([1]; 125 g ai/ha, 0 to 100 scale where 0 is no effect and 100 is complete control) was 100, the “Plant response rating, Crabgrass, Large” value ([1]; 500 g ai/ha, 0 to 100 scale, 0 no effect, 100 complete control) was 100 and the “Plant response rating, Velvetleaf” value ([2]; 125 g ai/ha) was 100. The “Plant response rating, Velvetleaf” value ([2]; 500 g ai/ha) was 100, the “Plant response rating, Barnyardgrass” value [3] was 0 and the “Galium plant response rating” value ([4]; 62 g ai/ha) was 90. For the same compound, the “Galium plant response rating” value ([4]; 125 g ai/ha) was 90, the “Galium plant response rating” value ([4]; 250 g ai/ha) was 95 and the “Plant response rating, Galium” value [4, 14] was 80. For the same compound, the “Corn plant response rating” value ([5]; 62 g ai/ha) was 25, the “Corn plant response rating” value ([5]; 125 g ai/ha) was 65 and the “Corn plant response rating” value ([5]; 250 g ai/ha) was 65. The “Morningglory plant response rating” value ([6]; 62 g ai/ha) was 85, the “Morningglory plant response rating” value ([6]; 125 g ai/ha) was 100 and the “Morningglory plant response rating” value ([6]; 250 g ai/ha) was 100. For the same compound, the “Plant response rating, Morningglory” value [6, 14] was 15, the “Nutsedge, Yellow plant response rating” value ([7]; 62 g ai/ha) was 0 and the “Nutsedge, Yellow plant response rating” value ([7]; 125 g ai/ha) was 10. For the same compound, the “Nutsedge, Yellow plant response rating” value ([7]; 250 g ai/ha) was 80, the “Plant response rating, Nutsedge, Yellow” value [7, 14] was 0 and the “Plant response rating (0 to 100), Wheat” value ([8]; 125 g ai/ha) was 0. The “Plant response rating (0 to 100), Wheat” value ([8]; 250 g ai/ha) was 5, the “Plant response rating, Wheat” value ([8]; 31 g ai/ha, 13 to 15 days) was 0 and the “Plant response rating, Wheat” value ([8]; 62 g ai/ha) was 0. For the same compound, the “Plant response rating (0 to 100), Lambsquarters” value ([9]; 125 g ai/ha) was 85, the “Plant response rating (0 to 100), Lambsquarters” value ([9]; 250 g ai/ha) was 98 and the “Plant response rating, Lambsquarters” value ([9]; 31 g ai/ha, 13 to 15 days) was 75. The “Plant response rating, Lambsquarters” value ([9]; 62 g ai/ha) was 75, the “Plant response rating (0 to 100), Morningglory” value ([10]; 125 g ai/ha) was 85 and the “Plant response rating (0 to 100), Morningglory” value ([10]; 250 g ai/ha) was 90. The “Plant response rating, Morningglory” value ([10]; 31 g ai/ha, 13 to 15 days) was 75, the “Plant response rating, Morningglory” value ([10]; 62 g ai/ha) was 75 and the “Plant response rating (0 to 100), Ragweed” value ([11]; 125 g ai/ha) was 60. The “Plant response rating (0 to 100), Ragweed” value ([11]; 250 g ai/ha) was 60, the “Plant response rating, Ragweed” value ([11]; 31 g ai/ha, 13 to 15 days) was 40 and the “Plant response rating, Ragweed” value ([11]; 62 g ai/ha) was 40. The “Plant response rating (0 to 100), Soybean” value ([12]; 125 g ai/ha) was 90, the “Plant response rating (0 to 100), Soybean” value ([12]; 250 g ai/ha) was 95 and the “Plant response rating, Soybean” value ([12]; Postemergence, 62 g ai/ha, scale 0 to 100 (0 no effect, 100 complete control)) was 80. For the same compound, the “Plant response rating (0 to 100), Oilseed Rape” value ([13]; 125 g ai/ha) was 70, the “Plant response rating (0 to 100), Oilseed Rape” value ([13]; 250 g ai/ha) was 90 and the “Plant response rating, Oilseed Rape” value ([13]; 31 g ai/ha, 13 to 15 days) was 55. The “Plant response rating, Oilseed Rape” value ([13]; 62 g ai/ha) was 70.
